≈ marks a conversion by molar mass, not a printed value.
Experiments:
[1] = DPPH radical scavenging test; details: mean ± SEM; for DPPH (% Inhibition): tested at 1 mg/mL
[2] = system: herpes simplex virus-2 (G); experiment: Antiviral activity in HEL cell cultures (CPE, MTS); format: cell-based; details: Human alphaherpesvirus 2; Herpes simplex virus-2, HEL cells
[3] = system: human embryonic lung (HEL) cell cultures
[4] = system: human T-lymphocyte cells (CEM); experiment: Cell proliferation inhibition
[5] = system: herpes simplex virus-1 (KOS); experiment: Antiviral activity in HEL cell cultures (CPE, MTS); format: cell-based; details: Human alphaherpesvirus 1, HEL cells
[6] = system: vesicular stomatitis virus; experiment: microbe, parasite or virus in culture; format: cell-based; details: HeLa, read-out: Antiviral EC50
[7] = system: HeLa cell cultures; details: human
[8] = system: HEK293T (Normal Kidney Epithelial Cells); experiment: Cell proliferation inhibition, non-cancer control cells; details: Homo sapiens, HEK-293T
[9] = system: human melanoma cells (SK-Mel 5); experiment: Cell proliferation inhibition
[10] = system: Epidermophyton floccosum; experiment: Antidermatophyte plaque growth inhibition; format: cell-based; details: for inhibition at 100 µg/mL: E. floccosum, '+' has no key, read-out: Percent growth inhibition
[11] = system: herpes simplex virus-1 TK-KOS ACVr; experiment: microbe, parasite or virus in culture; format: cell-based; details: Human alphaherpesvirus 1, HEL, read-out: Antiviral EC50
[12] = system: human cervical carcinoma cells (HeLa); experiment: Cell proliferation inhibition
[13] = system: Respiratory syncytial virus; experiment: microbe, parasite or virus in culture; format: cell-based; details: human respiratory syncytial virus, HeLa cells, read-out: Antiviral EC50
[14] = system: human pancreatic carcinoma cells (Mia Paca-2); experiment: Cell proliferation inhibition
[15] = system: Trichophyton tonsurans; experiment: Antidermatophyte plaque growth inhibition; format: cell-based; details: for inhibition at 100 µg/mL: T. tonsurans, '+' has no key, read-out: Percent growth inhibition
[16] = system: Human Coronavirus (229E); experiment: microbe, parasite or virus in culture; format: cell-based; details: HEL, read-out: Antiviral EC50
[17] = system: Coxsackie virus B4; experiment: Antiviral activity in HeLa cell cultures (CPE, MTS); format: cell-based; details: Enterovirus B; Coxsackie virus B4, HeLa cells
[18] = system: Microsporum gypseum; experiment: Antidermatophyte plaque growth inhibition; format: cell-based; details: Nannizzia gypsea; for inhibition at 100 µg/mL: M. gypseum, '+' has no key, read-out: Percent growth inhibition
[19] = system: Adeno virus-2; experiment: Antiviral activity in HEL cell cultures (CPE, MTS); format: cell-based; details: Adeno virus-2, HEL cells
[20] = Ferric reducing antioxidant power (FRAP) test; details: mean ± SEM
[21] = UV filtering parameters of compounds in solution (MeOH, 290-400 nm)
[22] = system: Microsporum canis; experiment: Antidermatophyte plaque growth inhibition; format: cell-based; details: for inhibition at 100 µg/mL: M. canis, '+' has no key, read-out: Percent growth inhibition
[23] = system: vaccinia virus; experiment: microbe, parasite or virus in culture; format: cell-based; details: Orthopoxvirus vaccinia, HEL, read-out: Antiviral EC50
[24] = system: Trichophyton mentagrophytes; experiment: Antidermatophyte plaque growth inhibition; format: cell-based; details: for inhibition at 100 µg/mL: T. mentagrophytes, '+' has no key, read-out: Percent growth inhibition
[25] = system: Candida albicans (ATCC 10231); experiment: Anti-Candida albicans broth microdilution MIC
[26] = Candida albicans, ATCC10231, 24 h

| SMILES | EC50 [2] [µM] | Cytotoxic concentration [3] [µM] | IC50 [4] [µM] | EC50 [5] [µM] | EC50 [6] [µM] | Cytotoxic concentration [7] [µM] | IC50 [8] [µM] | IC50 [9] [µM] | melting point [°C] | inhibition at 100 µg/mL [10] [%] | EC50 [11] [µM] | IC50 [12] [µM] | EC50 [13] [µM] | IC50 [14] [µM] | inhibition at 100 µg/mL [15] [%] | EC50 [16] [µM] | EC50 [17] [µM] | inhibition at 100 µg/mL [18] [%] | EC50 [19] [µM] | FRAP [20] [µmolTE/g] | further results |
| --- | --- | --- | --- | --- | --- | --- | --- | --- | --- | --- | --- | --- | --- | --- | --- | --- | --- | --- | --- | --- | --- |
| O=C(O)c1ccc2[nH]c(-c3ccc[nH]3)nc2c1 [Compound 13, 2-(1H-pyrrol-2-yl)-1H-benzimidazole-5-carboxylic Acid] | > 100 | > 100 | > 100 | > 100 | > 100 | > 100 | > 100 | > 100 | > 250 | 21.1 ± 2.14 | > 100 | > 100 | > 100 | > 100 | 4.55 ± 1.34 | > 100 | > 100 | 3.74 ± 1.49 | > 100 | 108.89 ± 2.98 | DPPH (% Inhibition) [1]: 33.00 ± 1.28%; SPF [21]: 7.40±0.23; UVA/UVB [21]: 0.7; UVAPF [21]: 1.10±0.09; λc (critical wavelength) [21]: 345 nm; inhibition at 100 µg/mL [22]: 8.66 ± 1.78%; EC50 [23]: > 100 µM; inhibition at 100 µg/mL [24]: < 0% |
| O=C(O)c1ccc2nc(-c3ccco3)[nH]c2c1 [Compound 14, 2-(furan-2-yl)-1H-benzimidazole-5-carboxylic Acid] | > 100 | > 100 | 75 ± 35 | > 100 | > 100 | > 100 | > 100 | > 100 | > 250 | 6.45 ± 1.47 | > 100 | > 100 | > 100 | > 100 | < 0 | > 100 | > 100 | < 0 | > 100 | 26.67 ± 2.89 | DPPH IC50 [1]: 1416.38 ± 21.40 µg/mL; MIC [25, 26]: 16 µg/mL (≈ 70.1 µM); SPF [21]: 16.66±1.21; UVA/UVB [21]: 0.5; UVAPF [21]: 1.20±0.10; λc (critical wavelength) [21]: 332 nm; inhibition at 100 µg/mL [22]: 18.7 ± 0.59%; EC50 [23]: > 100 µM; inhibition at 100 µg/mL [24]: < 0% |
| O=C(O)c1ccc2[nH]c(-c3cccs3)nc2c1 [Compound 15, 2-(thiophen-2-yl)-1H-benzimidazole-5-carboxylic Acid] | > 100 | > 100 | 50 ± 10 | > 100 | > 100 | > 100 | > 100 | > 100 | > 250 | 6.45 ± 2.98 | > 100 | > 100 | > 100 | 80 ± 12 | 4.48 ± 0.9 | > 100 | > 100 | 2.14 ± 0.59 | > 100 | 181.84 ± 2.66 | DPPH (% Inhibition) [1]: 30.23 ± 1.45%; MIC [25, 26]: 16 µg/mL (≈ 65.5 µM); SPF [21]: 6.40±0.12; UVA/UVB [21]: 0.43; UVAPF [21]: 1.42±0.11; λc (critical wavelength) [21]: 342 nm; inhibition at 100 µg/mL [22]: 20.3 ± 0.54%; EC50 [23]: > 100 µM; inhibition at 100 µg/mL [24]: < 0% |
| OC(Cn1cncn1)(Cn1cncn1)c1ccc(F)cc1F [Fluconazole, reference compound] | – | – | – | – | – | – | – | – | – | – | – | – | – | – | – | – | – | – | – | – | MIC ([25]; 48 h, tested 0.25-128 µg/mL, '-' = no activity): Neither synthesized compounds nor fluconazole showed activity; MIC [25, 26]: 0.5 µg/mL (≈ 1.63 µM); IC50 ([10]; E. floccosum growth, read-out: IC50): 0.08 ± 0.005 µg/mL (≈ 0.261 µM); IC50 ([15]; T. tonsurans growth, read-out: IC50): 19.4 ± 0.87 µg/mL (≈ 63.4 µM); IC50 ([18]; M. gypseum growth, read-out: IC50): 18.5 ± 1.23 µg/mL (≈ 60.4 µM); IC50 ([22]; M. canis growth, read-out: IC50): 29.6 ± 1.84 µg/mL (≈ 96.6 µM); IC50 ([24]; T. mentagrophytes growth, read-out: IC50): 3.53 ± 0.26 µg/mL (≈ 11.5 µM) |
